# Results: patent US11957687B2 (REGENERON PHARMACEUTICALS, INC., priority 2019, dated 2024)
# Target: HSD17B13 (Homo sapiens (Human), UniProt Q7Z5P4)
# Assay: HSD17B13 enzymatic inhibition assay (150 nM or 50 nM HSD17B13)
# Type: biochemical
# Conditions: 50 nM HSD17B13; read-out: Inhibition of 50 nM of HSD17B13 IC50
# Chain of HSD17B13 (Q7Z5P4 other isoform, or with tags, fused parts or gaps): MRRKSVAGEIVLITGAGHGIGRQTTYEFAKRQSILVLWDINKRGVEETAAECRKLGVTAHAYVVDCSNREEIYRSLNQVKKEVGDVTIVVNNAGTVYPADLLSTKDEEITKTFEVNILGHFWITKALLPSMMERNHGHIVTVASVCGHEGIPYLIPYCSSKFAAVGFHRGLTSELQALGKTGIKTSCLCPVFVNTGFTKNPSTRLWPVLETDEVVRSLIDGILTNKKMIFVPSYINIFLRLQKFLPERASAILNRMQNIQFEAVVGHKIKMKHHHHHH
row,SMILES,IC50 [µM]
1,"Cc1ccc2c(c1)Oc1cccc(C)c1C2NC(=O)c1cc(N2CCOCC2)c(C(F)(F)F)[nH]c1=O (stereo not shown) [Compound 439, N-(1,6-dimethyl-9H-xanthen-9-yl)-5-morpholino-2-oxo-6-(trifluoromethyl)-1,2-dihydropyridine-3-carboxamide]",0.56
2,"COCCOc1ccc2c(c1)Oc1ccccc1C2NC(=O)c1ccc(C(F)(F)F)[nH]c1=O (stereo not shown) [Compound 440, N-(3-(2-methoxyethoxy)-9H-xanthen-9-yl)-2-oxo-6-(trifluoromethyl)-1,2-dihydropyridine-3-carboxamide]",0.7
3,"Cc1ccc(C(NC(=O)c2ccc(C(F)(F)F)[nH]c2=O)c2ccccc2)c(S(C)(=O)=O)c1 (stereo not shown) [Compound 442, N-((4-methyl-2-(methylsulfonyl)phenyl)(phenyl)methyl)-2-oxo-6-(trifluoromethyl)-1,2-dihydropyridine-3-carboxamide]",2.56
4,"CCc1ccc(C(NC(=O)c2ccc(C(F)(F)F)[nH]c2=O)c2ccc(C)cc2)cc1 (stereo not shown) [Compound 443, N-((4-ethylphenyl)(p-tolyl)methyl)-2-oxo-6-(trifluoromethyl)-1,2-dihydropyridine-3-carboxamide]",0.12
5,"CCc1cccc(C(NC(=O)c2ccc(C(F)(F)F)[nH]c2=O)c2ccc(C)cc2)c1 (stereo not shown) [Compound 444, N-((3-ethylphenyl)(p-tolyl)methyl)-2-oxo-6-(trifluoromethyl)-1,2-dihydropyridine-3-carboxamide]",0.17
6,"COc1cccc(C(NC(=O)c2ccc(C(F)(F)F)[nH]c2=O)c2ccc(C)cc2)c1 (stereo not shown) [Compound 446, N-((3-methoxyphenyl)(p-tolyl)methyl)-2-oxo-6-(trifluoromethyl)-1,2-dihydropyridine-3-carboxamide]",0.27
7,"COc1ccc(C(NC(=O)c2ccc(C(F)(F)F)[nH]c2=O)c2ccc(C)cc2)cc1 (stereo not shown) [Compound 447, N-((4-methoxyphenyl)(p-tolyl)methyl)-2-oxo-6-(trifluoromethyl)-1,2-dihydropyridine-3-carboxamide]",0.16
8,"CSc1ccc(C(NC(=O)c2ccc(C(F)(F)F)[nH]c2=O)c2ccc(C)cc2)cc1 (stereo not shown) [Compound 448, N-((4-(methylthio)phenyl)(p-tolyl)methyl)-2-oxo-6-(trifluoromethyl)-1,2-dihydropyridine-3-carboxamide]",0.14
9,"COc1cc(C)ccc1C(NC(=O)c1ccc(C(F)(F)F)[nH]c1=O)c1ccccc1 (stereo not shown) [Compound 449, N-((2-methoxy-4-methylphenyl)(phenyl)methyl)-2-oxo-6-(trifluoromethyl)-1,2-dihydropyridine-3-carboxamide]",0.97
10,"Cc1ccc(C(NC(=O)c2ccc(C(F)(F)F)[nH]c2=O)c2ccccc2S(C)(=O)=O)cc1 (stereo not shown) [Compound 450, N-((2-(methylsulfonyl)phenyl)(p-tolyl)methyl)-2-oxo-6-(trifluoromethyl)-1,2-dihydropyridine-3-carboxamide]",1.1
11,"COc1c(C)cccc1C(NC(=O)c1ccc(C(F)(F)F)[nH]c1=O)c1ccccc1 (stereo not shown) [Compound 451, N-((2-methoxy-3-methylphenyl)(phenyl)methyl)-2-oxo-6-(trifluoromethyl)-1,2-dihydropyridine-3-carboxamide]",1.96
12,"Cc1cccc(C(NC(=O)c2ccc(C(F)(F)F)[nH]c2=O)c2ccccc2S(C)(=O)=O)c1 (stereo not shown) [Compound 452, N-((2-(methylsulfonyl)phenyl)(m-tolyl)methyl)-2-oxo-6-(trifluoromethyl)-1,2-dihydropyridine-3-carboxamide]",7.03
13,"Cc1cccc(C(NC(=O)c2ccc(C(F)(F)F)[nH]c2=O)c2ccccc2)c1S(C)(=O)=O (stereo not shown) [Compound 453, N-((3-methyl-2-(methylsulfonyl)phenyl) (phenyl)methyl)-2-oxo-6-(trifluoromethyl)-1,2-dihydropyridine-3-carboxamide]",3.23
14,"CCc1cccc(C(NC(=O)c2ccc(C(F)(F)F)[nH]c2=O)c2ccccc2OC)c1 (stereo not shown) [Compound 454, N-((3-ethylphenyl)(2-methoxyphenyl)methyl)-2-oxo-6-(trifluoromethyl)-1,2-dihydropyridine-3-carboxamide]",1.81
15,"CCc1cccc(C(NC(=O)c2ccc(C(F)(F)F)[nH]c2=O)c2ccccc2SC)c1 (stereo not shown) [Compound 455, N-((3-ethylphenyl)(2-(methylthio)phenyl)methyl)-2-oxo-6-(trifluoromethyl)-1,2-dihydropyridine-3-carboxamide]",0.87
16,"CCc1cccc(C(NC(=O)c2ccc(C(F)(F)F)[nH]c2=O)c2ccccc2S(C)(=O)=O)c1 (stereo not shown) [Compound 456, N-((3-ethylphenyl)(2-(methylsulfonyl)phenyl)methyl)-2-oxo-6-(trifluoromethyl)-1,2-dihydropyridine-3-carboxamide]",4.83
17,"CCCc1ccc2c(c1)C(NC(=O)c1ccc(C(F)(F)F)[nH]c1=O)c1ccccc1O2 (stereo not shown) [Compound 457, 2-oxo-N-(2-propyl-9H-xanthen-9-yl)-6-(trifluoromethyl)-1,2-dihydropyridine-3-carboxamide]",0.12

row,SMILES,IC50 [µM]
1,"CCCc1ccc2c(c1)C(NC(=O)c1ccc(C(F)(F)F)[nH]c1=O)c1ccccc1S2 (stereo not shown) [Compound 458, 2-oxo-N-(2-propyl-9H-thioxanthen-9-yl)-6-(trifluoromethyl)-1,2-dihydropyridine-3-carboxamide]",0.52
2,"Cc1ccc2c(c1)Oc1cc(C)ccc1C2NC(=O)c1ccc(-c2ccccc2)[nH]c1=O [Compound 459, N-(3,6-dimethyl-9H-xanthen-9-yl)-2-oxo-6-phenyl-1,2-dihydropyridine-3-carboxamide]",> 10
3,"Cc1ccc2c(c1)S(=O)(=O)c1cc(C)ccc1C2NC(=O)c1cc(CO)c(C(F)(F)F)[nH]c1=O [Compound 462, N-(3,6-dimethyl-10,10-dioxido-9H-thioxanthen-9-yl)-5-(hydroxymethyl)-2-oxo-6-(trifluoromethyl)-1,2-dihydropyridine-3-carboxamide]",0.14
4,"Cc1ccc2c(c1)Sc1cc(C)ccc1C2NC(=O)c1cc(CO)c(C(F)(F)F)[nH]c1=O [Compound 463, N-(3,6-dimethyl-9H-thioxanthen-9-yl)-5-(hydroxymethyl)-2-oxo-6-(trifluoromethyl)-1,2-dihydropyridine-3-carboxamide]",0.05
5,"Cc1ccc2c(c1)Oc1cc(C)ccc1C2NC(=O)c1cc(CO)c(C(F)(F)F)[nH]c1=O [Compound 464, N-(3,6-dimethyl-9H-xanthen-9-yl)-5-(hydroxymethyl)-2-oxo-6-(trifluoromethyl)-1,2-dihydropyridine-3-carboxamide]",0.01
6,"CCCc1cccc(C(NC(=O)c2ccc(C(F)(F)F)[nH]c2=O)c2ccccc2)c1 (stereo not shown) [Compound 465, 2-oxo-N-(phenyl(3-propylphenyl)methyl)-6-(trifluoromethyl)-1,2-dihydropyridine-3-carboxamide]",0.61
7,"CCc1cccc(C(NC(=O)c2ccc(C(F)(F)F)[nH]c2=O)c2ccccc2)c1 (stereo not shown) [Compound 466, N-((3-ethylphenyl)(phenyl)methyl)-2-oxo-6-(trifluoromethyl)-1,2-dihydropyridine-3-carboxamide]",0.6
8,"C=Cc1cccc(C(NC(=O)c2ccc(C(F)(F)F)[nH]c2=O)c2ccccc2)c1 (stereo not shown) [Compound 467, 2-oxo-N-(phenyl(3-vinylphenyl)methyl)-6-(trifluoromethyl)-1,2-dihydropyridine-3-carboxamide]",0.99
9,"CCc1ccc2c(c1)C(NC(=O)c1ccc(C(F)(F)F)[nH]c1=O)c1ccccc1S2(=O)=O (stereo not shown) [Compound 468, N-(2-ethyl-10,10-dioxido-9H-thioxanthen-9-yl)-2-oxo-6-(trifluoromethyl)-1,2-dihydropyridine-3-carboxamide]",0.19
10,"CCCc1ccc2c(c1)C(NC(=O)c1ccc(C(F)(F)F)[nH]c1=O)c1ccccc1S2(=O)=O (stereo not shown) [Compound 469, N-(10,10-dioxido-2-propyl-9H-thioxanthen-9-yl)-2-oxo-6-(trifluoromethyl)-1,2-dihydropyridine-3-carboxamide]",0.31
11,"Cc1ccc2c(c1)C(NC(=O)c1ccc(C(F)(F)F)[nH]c1=O)c1ccccc1S2(=O)=O (stereo not shown) [Compound 470, N-(2-methyl-10,10-dioxido-9H-thioxanthen-9-yl)-2-oxo-6-(trifluoromethyl)-1,2-dihydropyridine-3-carboxamide]",0.42
12,"C=CCc1ccc2c(c1)C(NC(=O)c1ccc(C(F)(F)F)[nH]c1=O)c1ccccc1O2 (stereo not shown) [Compound 471, N-(2-allyl-9H-xanthen-9-yl)-2-oxo-6-(trifluoromethyl)-1,2-dihydropyridine-3-carboxamide]",0.28
13,"O=C(NC1c2ccccc2S(=O)(=O)c2ccc(CC(F)(F)F)cc21)c1ccc(C(F)(F)F)[nH]c1=O (stereo not shown) [Compound 472, N-(10,10-dioxido-2-(2,2,2-trifluoroethyl)-9H-thioxanthen-9-yl)-2-oxo-6-(trifluoromethyl)-1,2-dihydropyridine-3-carboxamide]",0.48
14,"Cc1ccc2c(c1)S(=O)(=O)c1cc(C)ccc1C2NC(=O)c1cc(Br)c(C(F)(F)F)[nH]c1=O [Compound 473, 5-bromo-N-(3,6-dimethyl-10,10-dioxido-9H-thioxanthen-9-yl)-2-oxo-6-(trifluoromethyl)-1,2-dihydropyridine-3-carboxamide]",0.03
15,"Cc1ccc2c(c1)S(=O)(=O)c1cc(C)ccc1C2NC(=O)c1cc(C)c(C(F)(F)F)[nH]c1=O [Compound 474, N-(3,6-dimethyl-10,10-dioxido-9H-thioxanthen-9-yl)-5-methyl-2-oxo-6-(trifluoromethyl)-1,2-dihydropyridine-3-carboxamide]",0.03
16,"Cc1ccc2c(c1)S(=O)(=O)c1cc(C)ccc1C2NC(=O)c1ccc(C(F)(F)F)[nH]c1=O [Compound 475, N-(3,6-dimethyl-10,10-dioxido-9H-thioxanthen-9-yl)-2-oxo-6-(trifluoromethyl)-1,2-dihydropyridine-3-carboxamide]",0.01
17,"Cc1ccc2c(c1)S(=O)(=O)c1cccc(C)c1C2NC(=O)c1ccc(C(F)(F)F)[nH]c1=O (stereo not shown) [Compound 476, N-(1,6-dimethyl-10,10-dioxido-9H-thioxanthen-9-yl)-2-oxo-6-(trifluoromethyl)-1,2-dihydropyridine-3-carboxamide]",> 10
